The text below walks through data of patent US20230286919A1, “ISOQUINOLINE DERIVATIVES FOR USE IN THERAPY” (Vestlandets Innovasjonsselskap AS, priority 2020, published 2023).

Series [1] has as its system phosphorylated STAT3 (Tyr705). Kind of series: Western blot, IL-6-induced phosphorylation of STAT3 (Tyr705) in LNCaP cells. The settings on record: 20 μM, 24 hrs, 10 ng/ml IL-6 last 15 min. It counts as cell-based, human. Here is the method: To obtain the results shown in FIG. 9, LNCaP cells were treated with DMSO, 20 μM of compound 323-1 or 323-2 or 5 μM cryptotanshinone for 24 hrs before treatment with or without 10 ng/ml IL-6 for the last 15 min.

In series [2] the test system is phosphorylated STAT3 (Tyr705) over pSTAT1 (S727). Kind of series: Western blot, pSTAT3 (Tyr705) and pSTAT1 (S727) in DU145 cells. It counts as cell-based, human. The following applies: 24 hrs. A general note: Immunoblotting shows a protein as a band on a membrane.
Series [3] relates to STAT3 target genes (Cyclin D1, BCL-XL, MCL1, Survivin, PARP). Kind of series: Western blot of STAT3 target gene proteins. It counts as cell-based, human. Here is the method: As reported, aberrant STAT3 regulates the expression of downstream target genes involved in anti-apoptosis (Bcl-2, Mcl-1, survivin, and Bcl-xL), cell cycle (cyclin D1 and c-Myc), angiogenesis (VEGF and HIF1α), invasion and metastasis (MMP-1, MMP-2, MMP-9) and the inhibition of host immune surveillance. To further identify the characterization of the properties of 323-1 and 323-2, DU145, EPT3-M1-STAT3 and LNCaP cells were treated with 323-1 and 323-2 followed by western blotting.
To obtain the results shown in FIG. 13, EPT3M1-STAT3 or LNCaP cells were treated with DMSO, 20 μM of compound 323-1, or 20 μM of compound 323-2 for 48 hrs, respectively. Lysates were analysed and loaded to western blotting.

In series [4] the target is T1, STAT3 dimerization (Homo sapiens, UniProt P40763).
T1 construct: expressed in transfected cells; host or cells: 293T cells
T1 sequence (P40763 whole entry): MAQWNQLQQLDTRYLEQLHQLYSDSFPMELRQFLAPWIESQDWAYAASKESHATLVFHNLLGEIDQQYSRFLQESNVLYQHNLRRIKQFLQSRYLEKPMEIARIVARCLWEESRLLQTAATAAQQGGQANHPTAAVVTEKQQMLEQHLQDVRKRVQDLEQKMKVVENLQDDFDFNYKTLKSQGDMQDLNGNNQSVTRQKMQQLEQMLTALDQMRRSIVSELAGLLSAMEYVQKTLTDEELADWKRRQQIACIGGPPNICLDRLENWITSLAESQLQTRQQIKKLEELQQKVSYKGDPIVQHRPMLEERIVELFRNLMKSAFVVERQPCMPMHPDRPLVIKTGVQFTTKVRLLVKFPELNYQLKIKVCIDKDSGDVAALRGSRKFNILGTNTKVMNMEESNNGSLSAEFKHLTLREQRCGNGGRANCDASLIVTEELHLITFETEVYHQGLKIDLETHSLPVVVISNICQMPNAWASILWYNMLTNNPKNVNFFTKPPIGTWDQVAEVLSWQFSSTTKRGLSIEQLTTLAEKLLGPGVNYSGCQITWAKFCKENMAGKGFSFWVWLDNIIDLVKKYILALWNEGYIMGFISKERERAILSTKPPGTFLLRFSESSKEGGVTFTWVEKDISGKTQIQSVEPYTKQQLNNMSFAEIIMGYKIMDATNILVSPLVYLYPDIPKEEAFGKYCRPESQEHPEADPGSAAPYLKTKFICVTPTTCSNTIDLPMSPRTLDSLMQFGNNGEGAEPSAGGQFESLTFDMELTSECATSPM
Kind of series: Co-immunoprecipitation of HA-STAT3 and FLAG-STAT3 in 293T cells. The settings on record: 50 μM, 24 hours, compared with S3I-201 (200 μM). The series is classed as cell-based. As for the experimental part: 293T cells were collected in the medium and centrifuged at 800 g x 5 min, then washed with cold PBS twice before adding 500 μl Pierce™ IP Lysis Buffer (Thermofisher Scientific, 87787), containing protease and phosphatase inhibitor cocktail without DTT (Roche, 11836153001), into the cells. Cell lysates were passed several times through a 27^1/2-gauge needle to disrupt the nuclei. 1-2 mg extracts were added with pre-cleaned 50 μL slurry of Pierce™ […] Magnetic Agarose (Thermoscientific, A36797), then supernatant were collect with magnet and immunoprecipitated (IP) at RT on a rotator for 30 min. Beads were boiled at 95° C. for 5 min followed by adding the 100 μL of 1× Non-reducing Sample Buffer (Thermofisher Scientific, 39000) into beads. The supernatant was collected with a magnet and then added 5 μL of 1M DTT (Thermoscientific, P2325) into sample prior to proceeding the immunoblotting.
Nuclear translocation of the STAT3 dimers mediates the STAT3 transcriptional activity.

For series [5], the system named is LNCaP tumours. Kind of series: Antitumor activity in vivo, LNCaP xenograft. The following applies: IP daily for three weeks. Here is the method:
Four-week-old male BALB/c-nu nude mice (15-20 g) were obtained from the Shanghai BiKai Laboratory Animal Co., Ltd. (Shanghai, China). The animals were maintained under specific pathogen-free conditions with food and water supplied ad libitum in the Laboratory Animal Center of the Second Military Medical University. All animal experiments were carried out in accordance with the Guide for the Care and Use of Laboratory Animals of the National Institutes of Health and were approved by the Committee on the Ethics of Animal Experiments of the Second Military Medical University, China. LNCaP cells were harvested and re-suspended in PBS. A total of 5×10^6 cells were subcutaneously injected into the right flank. Tumour volume was calculated using the following formula: V=(L×[…])/2, where L is the length and W is the width of the tumour nodules measured with vernier callipers. Once the volume of the tumours reached 75-100 mm^3, the mice were randomly divided into three groups (n=6). […] Body weights and tumour volumes were measured before each drug injection. […]
The mice were treated daily for three weeks with IP injections of either vehicle (olive oil) or compound 323-2 (20 mg/kg or 40 mg/kg in the vehicle). Body weights and tumour volumes were measured before each drug injection. […]

Series [6] concerns LPS-induced IL-10 and IL-12p70 secretion in dendritic cells. Kind of series: ELISA of secreted IL-10 and IL-12p70 in LPS-stimulated dendritic cells. It counts as cell-based, human. The settings on record: 24 hrs. Here is the method:
Low platelet peripheral blood mononuclear cells (PBMCs) were isolated from peripheral blood of healthy donors by Ficoll-Paque density centrifugation. Monocytes were derived from the above PBMCs by immunomagnetic selection with CD14+ microbeads (Pan Monocyte Isolation Kit from Miltenyi Biotec) and seeded at s 0.5×10^6 monocytes/ml in CellGro medium supplemented with GM-CSF (100 ng/ml) and IL-4 (20 ng/ml) to obtain immature dendritic cells (iDCs). Cytokines were replenished after 72 hrs and 24 hrs after incubation, iDCs were stimulated with 30 ng/ml LPS to obtain mature dendritic cells (moDCs). Test compounds were added into the wells 1 hr prior to the LPS treatment and co-incubated with LPS for another 23 hrs. Supernatant was collected for the detection of secreted IL-10 and IL-12p70 using a standard ELISA kit and cells were collected and markers identified by flow cytometry.
The effects of compounds 323-1 and 323-2 and various controls on the LPS-induced expression of cytokines IL-10, IL-12p70, co-stimulatory molecules and maturation markers (CD80, CD83, CD86, HLA-DR, CCR7) and programmed death-ligand 1 (PD-L1) and programmed death-ligand 2 (PD-L2) were determined.
For orientation: In an ELISA, binding on a coated surface is turned into a signal by an enzyme label.

Where [7] appears, read: EPT3-M1-STAT3 and LNCaP cells, 20 μM, 48 hrs.

SMILES strings stand for the structures.

In the case of `C[C@@H]1CCC(c2cc3c4c(cncc4c2)[C@@H](C)C3)=C1C=O` [323-2, (15S,2R)-Delavatine A], the “IL-6-induced phosphorylation of STAT3 on Tyr705” value in series [1] was “inhibited”. Also, in series [2], the “Expression of phosphorylated STAT3 at Tyr705 compared with S3I-201” value is recorded as “better effect than S3I-201” and the “Selectivity, phosphorylated STAT3 (Tyr705) over pSTAT1 (S727)” value is reported as “selective inhibitory effect”. In addition, in series [3] (setting [7]), the “Protein level of STAT3 target gene MCL1” value is reported as “repressed” and the “Protein level of Survivin or PARP” value is given as “but not Survivin or PARP”. In addition, in series [3] (LNCaP cells), the “Expression of Cyclin D1” value is recorded as “down-regulated dose-dependently”. Moreover, the “Dimerization of STAT3 (HA-STAT3/FLAG-STAT3)” value in series [4] is given as “could disrupt the dimerization of STAT3”. For the same compound, in series [5] (20 mg/kg or 40 mg/kg, especially high dose), the CRPC tumour growth result is reported as “significantly inhibited CRPC tumour growth”. For the same compound, in series [5] (20 or 40 mg/kg), the Body weight change entry was “No significant body weight change”. Moreover, the “Secretion of IL-10 and IL-12p70” value in series [6] is “significantly reduced”.
